According to ChEMBL document CHEMBL5241112, “Insights into the recent progress in the medicinal chemistry of pyranopyrimidine analogs” (RSC Med Chem, 2022):
Values after ≈ are worked out from the molar mass of the structure shown.

Key:
[1] = test system: HepG2; assay: Anticancer activity against human HepG2 cells assessed as reduction in cell viability; format: functional, cell-based
[2] = test system: PC-3; assay: Anticancer activity against human PC-3 cells assessed as reduction in cell viability; format: functional, cell-based
[3] = test system: HCT-116; assay: cells; settings: Homo sapiens
[4] = test system: MCF7; assay: Anticancer activity against human MCF7 cells assessed as reduction in cell viability; format: functional, cell-based
[5] = molecular target: DNA topoisomerase II (Homo sapiens, UniProt P11388+Q02880); assay: Inhibition of DNA topoisomerase 2 (unknown origin); format: protein assay
[6] = molecular target: DNA; assay: Binding affinity to DNA (unknown origin) assessed as DNA intercalation; format: nucleic-acid assay
[7] = test system: Staphylococcus aureus; assay: Antimicrobial activity against Staphylococcus aureus assessed as diameter of inhibition zone at 1.2 mg/ml incubated for 12 hrs by agar disk diffusion method; format: functional
[8] = test system: Staphylococcus aureus; assay: Antimicrobial activity against Staphylococcus aureus assessed as diameter of inhibition zone at 2.5 mg/ml incubated for 12 hrs by agar disk diffusion method; format: functional
[9] = test system: Staphylococcus aureus; assay: Antimicrobial activity against Staphylococcus aureus assessed as diameter of inhibition zone at 5.0 mg/ml incubated for 12 hrs by agar disk diffusion method; format: functional
[10] = test system: Escherichia coli; assay: Antimicrobial activity against Escherichia coli assessed as diameter of inhibition zone at 1.2 mg/ml incubated for 12 hrs by agar disk diffusion method; format: functional
[11] = test system: Escherichia coli; assay: Antimicrobial activity against Escherichia coli assessed as diameter of inhibition zone at 2.5 mg/ml incubated for 12 hrs by agar disk diffusion method; format: functional
[12] = test system: Escherichia coli; assay: Antimicrobial activity against Escherichia coli assessed as diameter of inhibition zone at 5.0 mg/ml incubated for 12 hrs by agar disk diffusion method; format: functional
[13] = test system: Pseudomonas aeruginosa; assay: Antimicrobial activity against Pseudomonas aeruginosa assessed as diameter of inhibition zone at 1.2 mg/ml incubated for 12 hrs by agar disk diffusion method; format: functional
[14] = test system: Pseudomonas aeruginosa; assay: Antimicrobial activity against Pseudomonas aeruginosa assessed as diameter of inhibition zone at 2.5 mg/ml incubated for 12 hrs by agar disk diffusion method; format: functional
[15] = test system: Pseudomonas aeruginosa; assay: Antimicrobial activity against Pseudomonas aeruginosa assessed as diameter of inhibition zone at 5.0 mg/ml incubated for 12 hrs by agar disk diffusion method; format: functional
[16] = test system: Bacillus cereus; assay: Antimicrobial activity against Bacillus cereus assessed as diameter of inhibition zone at 1.2 mg/ml incubated for 12 hrs by agar disk diffusion method; format: functional
[17] = test system: Bacillus cereus; assay: Antimicrobial activity against Bacillus cereus assessed as diameter of inhibition zone at 2.5 mg/ml incubated for 12 hrs by agar disk diffusion method; format: functional
[18] = test system: Bacillus cereus; assay: Antimicrobial activity against Bacillus cereus assessed as diameter of inhibition zone at 5.0 mg/ml incubated for 12 hrs by agar disk diffusion method; format: functional
[19] = molecular target: Hydroxycarboxylic acid receptor 2 (Homo sapiens, UniProt Q8TDS4); assay: Agonist activity at human HCA2 expressed in human Flp-In-293 cells assessed as inhibition of forskolin-stimulated cAMP accumulation at 50 uM incubated for 30 mins by Lance cAMP assay; format: cell-based; settings: filed as agonist
[20] = test system: Escherichia coli; assay: Antibacterial activity against Escherichia coli ATCC 25922 assessed as diameter of inhibition zone incubated for 24 hrs by disc diffusion assay; format: functional
[21] = test system: Pseudomonas aeruginosa; assay: Antibacterial activity against Pseudomonas aeruginosa ATCC 27853 assessed as diameter of inhibition zone incubated for 24 hrs by disc diffusion assay; format: functional
[22] = test system: Escherichia coli; assay: Antibacterial activity against Escherichia coli ATCC 25922 assessed as inhibition of bacterial growth incubated for 24 hrs by broth macrodilution method; format: functional
[23] = test system: Pseudomonas aeruginosa; assay: Antibacterial activity against Pseudomonas aeruginosa ATCC 27853 assessed as inhibition of bacterial growth incubated for 24 hrs by broth macrodilution method; format: functional
[24] = test system: MDA-MB-435; assay: Anticancer activity against human MDA-MB-435 cells assessed as cell growth inhibition by sulforhodamine B assay; format: functional
[25] = test system: PC-3; assay: Anticancer activity against human PC-3 cells assessed as cell growth inhibition by sulforhodamine B assay; format: functional
[26] = test system: OVCAR-3; assay: Anticancer activity against human OVCAR-3 cells assessed as cell growth inhibition by sulforhodamine B assay; format: functional
[27] = test system: MDA-MB-435; assay: Anticancer activity against human MDA-MB-435 cells assessed as tumor growth inhibition by sulforhodamine B assay; format: functional
[28] = test system: PC-3; assay: Anticancer activity against human PC-3 cells assessed as tumor growth inhibition by sulforhodamine B assay; format: functional
[29] = test system: OVCAR-3; assay: Anticancer activity against human OVCAR-3 cells assessed as tumor growth inhibition by sulforhodamine B assay; format: functional
[30] = test system: MDA-MB-435; assay: Anticancer activity against human MDA-MB-435 cells assessed as lethality by sulforhodamine B assay; format: functional; settings: read-out: LC50 (the source's name)
[31] = test system: PC-3; assay: Anticancer activity against human PC-3 cells assessed as lethality by sulforhodamine B assay; format: functional; settings: read-out: LC50 (the source's name)
[32] = test system: OVCAR-3; assay: Anticancer activity against human OVCAR-3 cells assessed as lethality by sulforhodamine B assay; format: functional; settings: read-out: LC50 (the source's name)
[33] = test system: Escherichia coli; assay: Antimicrobial activity against Escherichia coli assessed as diameter of inhibition zone by agar well diffusion method; format: functional
[34] = test system: Bacillus subtilis; assay: Antimicrobial activity against Bacillus subtilis assessed as diameter of inhibition zone by agar well diffusion method; format: functional
[35] = test system: HeLa; assay: Anticancer activity against human HeLa cells assessed as reduction in cell viability incubated for 48 hrs by MTT assay; format: functional, cell-based
[36] = test system: MCF7; assay: cells; settings: Homo sapiens, MCF7, 48 h
[37] = test system: NUGC; assay: Anticancer activity against human NUGC cells assessed as cell growth inhibition incubated for 24 hrs; format: functional, cell-based
[38] = test system: DLD-1; assay: Anticancer activity against human DLD-1 cells assessed as cell growth inhibition incubated for 24 hrs; format: functional, cell-based; settings: DLD-1, 24 h
[39] = Antioxidant activity assessed as DPPH radical scavenging activity at 25 ug/ml incubated for 30 mins by spectrophotometric analysis; format: functional; settings: dose 25.0 µg/ml
[40] = Antioxidant activity assessed as DPPH radical scavenging activity at 50 ug/ml incubated for 30 mins by spectrophotometric analysis; format: functional; settings: dose 50.0 µg/ml

Sequence of Hydroxycarboxylic acid receptor 2 (Q8TDS4 whole entry, the tested form may be a part): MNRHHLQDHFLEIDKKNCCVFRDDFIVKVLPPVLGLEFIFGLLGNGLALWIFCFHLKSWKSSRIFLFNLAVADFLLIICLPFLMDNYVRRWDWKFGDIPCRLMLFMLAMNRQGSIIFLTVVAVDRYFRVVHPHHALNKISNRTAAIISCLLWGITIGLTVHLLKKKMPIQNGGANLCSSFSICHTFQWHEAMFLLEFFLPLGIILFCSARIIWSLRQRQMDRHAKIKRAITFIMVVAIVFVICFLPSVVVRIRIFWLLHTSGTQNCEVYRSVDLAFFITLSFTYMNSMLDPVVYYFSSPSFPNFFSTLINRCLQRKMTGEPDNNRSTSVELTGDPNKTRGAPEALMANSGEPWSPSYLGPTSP

In the case of `CCOC(=O)C1=C(N)Oc2[nH]c(=O)[nH]c(=O)c2C1c1cccc([N+](=O)[O-])c1` (stereo unspecified), the IC50 [1] is reported as 0.25 µg/mL, the IC50 [2] is reported as 0.25 µg/mL (≈ 0.668 µM) and the IC50 [3] is reported as 0.25 µg/mL.
In the case of `COc1ccc(C2c3c([nH]c(=O)[nH]c3=O)Oc3ncn(C(=S)Nc4ccccc4)c(=N)c32)cc1` (stereo unspecified), the IC50 [1] is reported as 2.09 µM, the IC50 [4] is reported as 2.43 µM and the IC50 [5] is reported as 0.791 µM. It also gave an IC50 [6] of 27.1 µM and an IC50 [3] of 2.61 µM.
For `COc1ccc(C2C(C#N)=C(N)Oc3[nH]c(=S)[nH]c(=O)c32)cc1` (stereo unspecified), the zone of inhibition at 1200 µg/mL ([7]; read-out: DIZ) was 12 mm, the zone of inhibition at 2500 µg/mL ([8]; read-out: DIZ) was 16 mm and the zone of inhibition at 5000 µg/mL ([9]; read-out: DIZ) was 20 mm. It also gave a zone of inhibition at 1200 µg/mL ([10]; read-out: DIZ) of 14 mm, a zone of inhibition at 2500 µg/mL ([11]; read-out: DIZ) of 20 mm and a zone of inhibition at 5000 µg/mL ([12]; read-out: DIZ) of 30 mm. The zone of inhibition at 1200 µg/mL ([13]; read-out: DIZ) was 12 mm, the zone of inhibition at 2500 µg/mL ([14]; read-out: DIZ) was 17 mm and the zone of inhibition at 5000 µg/mL ([15]; read-out: DIZ) was 30 mm. The zone of inhibition at 1200 µg/mL ([16]; read-out: DIZ) was 14 mm, the zone of inhibition at 2500 µg/mL ([17]; read-out: DIZ) was 18 mm and the zone of inhibition at 5000 µg/mL ([18]; read-out: DIZ) was 22 mm.
`NC(=O)CSc1nc(=O)c2c(CCCCCl)cc(=O)oc2[nH]1` gave an Emax [19] of 87%.
Work on GENTAMICIN yielded an inhibition zone (IZ) [7] of 11 mm, an inhibition zone (IZ) [8] of 14 mm and an inhibition zone (IZ) [9] of 18 mm. For the same molecule, the inhibition zone (IZ) [10] was 11 mm, the inhibition zone (IZ) [11] was 14 mm and the inhibition zone (IZ) [12] was 18 mm. It also gave an inhibition zone (IZ) [13] of 11 mm, an inhibition zone (IZ) [14] of 14 mm and an inhibition zone (IZ) [15] of 18 mm. The inhibition zone (IZ) [16] was 11 mm, the inhibition zone (IZ) [17] was 14 mm and the inhibition zone (IZ) [18] was 18 mm. For the same molecule, the inhibition zone (IZ) [20] was 21.3 mm, the inhibition zone (IZ) [21] was 17.3 mm and the MIC [22] was 3.68 µg/mL. It also gave an MIC [23] of 15.4 µg/mL.
Molecule `CC(=O)C1=C(C)Oc2[nH]c(=O)[nH]c(=O)c2C1c1cccc([N+](=O)[O-])c1` (stereo unspecified) has an IC50 [1] of 5.21 µg/mL, an IC50 [2] of 4.8 µg/mL (≈ 14 µM) and an IC50 [3] of 7.65 µg/mL.
With `N#CC1=C(N)Oc2[nH]c(=O)[nH]c(=O)c2C1c1ccco1` (stereo unspecified) the GI50 [24] was over 100 µM, the GI50 [25] was over 100 µM and the GI50 [26] was over 100 µM. For the same molecule, the TGI [27] was over 100%, the TGI [28] was 98.8% and the TGI [29] was over 100%. The CC50 [30] was over 100 µM, the CC50 [31] was over 100 µM and the CC50 [32] was over 100 µM.
In the case of `CC(C)c1ccc(C2C(C#N)=C(N)Oc3[nH]c(=O)[nH]c(=O)c32)cc1` (stereo unspecified), the “diameter of the inhibition zone (DIZ)” value [33] is reported as 10.8 mm and the “diameter of the inhibition zone (DIZ)” value [34] is reported as 13 mm.
Work on `COc1cccc2c1C(=O)c1c(O)c3c(c(O)c1C2=O)C[C@@](O)(C(=O)CO)C[C@@H]3O[C@H]1C[C@H](N)[C@H](O)[C@H](C)O1.Cl` [DOXORUBICIN HYDROCHLORIDE] yielded a GI50 [24] of under 0.1 µM, a GI50 [25] of under 0.1 µM and a GI50 [26] of under 0.1 µM. The TGI [27] was 5.5%, the TGI [28] was 76.7% and the TGI [29] was 56.3%. The CC50 [30] was 91.8 µM, the CC50 [31] was over 100 µM and the CC50 [32] was over 100 µM. It also gave an IC50 [35] of under 10 µM and an IC50 [36] of under 10 µM.
Molecule `N#CC1=C(N)C2C(=NC(n3[nH]c(N)cc3=O)=NC2c2ccc(Cl)cc2)OC1=O` (stereo unspecified) has an IC50 [37] of 2.21 µM and an IC50 [38] of 2.13 µM.
Molecule `O=c1c(C2c3c(-c4ccccc4)n[nH]c3Oc3[nH]c(=S)n(-c4ccccc4)c(=S)c32)coc2ccccc12` (stereo unspecified) has an Activity [39] of 61.6% and an Activity [40] of 66.4%.
